The values below come from US5326788A, “Biological fluid purification system” (priority 1992, dated 1994).

Experiment [1] has as its system HIV-2. Put plainly: Syncytia assay, HUT78 cells infected with ROD-2 isolate co-cultured with H9 cells. It counts as cell-based. The following applies: 24 hours. As for the experimental part:
(§1) In order to assess the effects of Hy and Ps on the ability of HIV to form syncytia, the following experiments were performed. For the analysis of HIV-1, an entry syncytia assay was performed by co-culturing H9 cells (described in Popovic, M. et al. Science 224: 497-500, 1984) infected with the IIIb isolate of HIV with uninfected Supt-1 cells (Walker, B. D. et al. Proc. Nat. Acad. Sci. (USA) 84: 8120-8124, 1987) as the target cell. HIV-2 was tested using HUT78 cells (obtained from the National Institute of Health by reference to Depository Catalog, Reagent Program, Bethesda, Md.) infected with the ROD-2 isolate of HIV-2 co-cultured with uninfected H9 target cells. The infected cells were plated in 96 well plates (10^4 cells per well in RPM1 1640 medium with 10% fetal calf serum) and incubated with or without dilutions of Ps or Hy for 30 minutes at 37° C. 1×10^5 target cells were then added per well and the number of syncytia were quantitatively and qualitatively determined after 24 hours.

For experiment [2], the target named is purified reverse transcriptase from murine leukemia virus (Moloney murine leukemia virus isolate Shinnick, UniProt P03355). The experiment in a line: Direct incubation with purified reverse transcriptase. Type of experiment: biochemical. As for the experimental part:
(§2) In FIG. 1, open squares represent hypericin-treated and pluses represent pseudohypericin treated HIV. […] Inactivation of the reverse transcriptase activity of the virions was not a result of a direct inhibition of reverse transcriptase activity per se, as incubation of either compound directly with purified reverse transcriptase from either avian myeloblastosis virus or murine leukemia virus had no effect on enzyme activity. Furthermore, aliquots of HIV derived from these H9 cell cultures lost the ability to replicate in culture when exposed to as little as 0.77 micrograms/ml of hypericin.

The test system of experiment [3] is purified reverse transcriptase from avian myeloblastosis virus. The experiment is described as above. Type of experiment: biochemical. The protocol: as §2
In experiment [4] the test system is HIV-1 env. Put plainly: Syncytia assay, cell line expressing only envelope proteins of HIV-1 IIIb with Supt-1 cells. It counts as cell-based. To be noted: 24 hours. As for the experimental part:
as §1
Also tested in a syncytia assay was a constructed cell line expressing only the envelope proteins of HIV-1 type IIIb isolate (Walker, B. D. et al., supra). These cells, designated HIV-1 env in Table 6, were treated with the indicated concentrations of Ps or Hy and incubated with uninfected Supt-1 target cells as above.

The test system of experiment [5] is HIV-1. The experiment in a line: Syncytia assay, H9 cells infected with IIIb isolate of HIV co-cultured with Supt-1 cells. It counts as cell-based. The following applies: 24 hours. The protocol:
as §1

Experiment [6] relates to HIV. The experiment in a line: Inactivation of HIV from blood of sero-positive patient, reverse transcriptase activity after culture with H9 cells. To be noted: Human immunodeficiency virus 1, H9, 1 h, read-out: concentration giving complete inactivation of HIV (no reverse transcriptase detected), 1 hour at 37° C., H9 cells. Type of experiment: cell-based, Human Immunodeficiency Virus (HIV). The protocol:
In order to show the effectiveness of the compounds of the present invention in the inactivation of HIV, blood was obtained from an HIV sero-positive patient and treated with hypericin and pseudohypericin at various concentrations for 1 hour at 37° C. and incubated with uninfected H9 cells in culture. Thereafter, reverse transcriptase enzymatic activity was determined as disclosed in U.S. patent application Ser. Nos. 084,008 and 172,064 filed Aug. 10, 1987 and Mar. 23, 1988, respectively.
as §2

Experiment [7] deals with HIV. The experiment in a line: Inhibition of HIV induced syncytia formation / cell fusion (summary over the assays). It counts as cell-based, Human Immunodeficiency Virus (HIV). As for the experimental part:
as §1

In experiment [8] the test system is HIV. To be noted: cited from earlier work.

Regarding `Cc1cc(O)c2c(=O)c3c(O)cc(O)c4c5c(O)cc(O)c6c(=O)c7c(O)cc(CO)c8c1c2c(c34)c(c65)c78` [pseudohypericin], the “syncytia score (number 0-4, size S/M/L)” value in experiment [1] (12 nanograms), in experiment [1] (24 nanograms), in experiment [1] (47 nanograms), in experiment [1] (94 nanograms), in experiment [1] (188 nanograms) and in experiment [1] (375 nanograms) was 4 L in each case. Also, the “syncytia score (number 0-4, size S/M/L)” value worked out at 3 M in experiment [1] (750 nanograms); 2S in experiment [1] (1500 nanograms); 2S in experiment [1] (3000 nanograms); 4 L in experiment [4] (12 nanograms); 4 L in experiment [4] (24 nanograms); 4 L in experiment [4] (47 nanograms). Moreover, the “syncytia score (number 0-4, size S/M/L)” value in experiment [4] (94 nanograms) amounted to 4 L; in experiment [4] (188 nanograms) it was 4 L; in experiment [4] (375 nanograms) it was 4 L; in experiment [4] (750 nanograms), 4 L; in experiment [4] (1500 nanograms), 3 L; in experiment [4] (3000 nanograms), 1S. The “syncytia score (number 0-4, size S/M/L)” value in experiment [5] (12 nanograms), in experiment [5] (24 nanograms), in experiment [5] (47 nanograms), in experiment [5] (94 nanograms), in experiment [5] (188 nanograms) and in experiment [5] (375 nanograms) was 4 L in each case. For the same compound, the “syncytia score (number 0-4, size S/M/L)” value amounted to 4 L in experiment [5] (750 nanograms), 3 M in experiment [5] (1500 nanograms) and 1S in experiment [5] (3000 nanograms). Besides, the “effect on enzyme activity of purified reverse transcriptase” value in experiment [2] and in experiment [3] was “no effect” throughout. For the same compound, in experiment [6], the IC100 is over 100 µg/mL. In experiment [7] (compared with hypericin), the “inhibition of cell fusion” value is recorded as “effective but at substantially higher”. For the same compound, the “dose needed for similar inhibition relative to hypericin” value in experiment [7] (syncytia formation) is reported as 20-60 fold.
Regarding “nonylphenoxypolyethoxyethanol [Nonoxynol-9]”, the “concentration effective against free virus” value in experiment [8] is reported as > 0.05 % (vol/vol).
